ChEMBL document CHEMBL5724796, “Tm Shift (DSF) assay results for EUbOPEN Chemogenomics Library” (2024)
Residues, ends and D or L forms follow the SMILES beside them. *: point of attachment. Cbz = O=C(OCc1ccccc1)*; CH2Cl = ClC*; CH2F = FC*

Legend:
[1] = target: T1, Peregrin (Homo sapiens) (UniProt P55201); conditions: Compound concentration 20.0 uM
T1 sequence (whole entry): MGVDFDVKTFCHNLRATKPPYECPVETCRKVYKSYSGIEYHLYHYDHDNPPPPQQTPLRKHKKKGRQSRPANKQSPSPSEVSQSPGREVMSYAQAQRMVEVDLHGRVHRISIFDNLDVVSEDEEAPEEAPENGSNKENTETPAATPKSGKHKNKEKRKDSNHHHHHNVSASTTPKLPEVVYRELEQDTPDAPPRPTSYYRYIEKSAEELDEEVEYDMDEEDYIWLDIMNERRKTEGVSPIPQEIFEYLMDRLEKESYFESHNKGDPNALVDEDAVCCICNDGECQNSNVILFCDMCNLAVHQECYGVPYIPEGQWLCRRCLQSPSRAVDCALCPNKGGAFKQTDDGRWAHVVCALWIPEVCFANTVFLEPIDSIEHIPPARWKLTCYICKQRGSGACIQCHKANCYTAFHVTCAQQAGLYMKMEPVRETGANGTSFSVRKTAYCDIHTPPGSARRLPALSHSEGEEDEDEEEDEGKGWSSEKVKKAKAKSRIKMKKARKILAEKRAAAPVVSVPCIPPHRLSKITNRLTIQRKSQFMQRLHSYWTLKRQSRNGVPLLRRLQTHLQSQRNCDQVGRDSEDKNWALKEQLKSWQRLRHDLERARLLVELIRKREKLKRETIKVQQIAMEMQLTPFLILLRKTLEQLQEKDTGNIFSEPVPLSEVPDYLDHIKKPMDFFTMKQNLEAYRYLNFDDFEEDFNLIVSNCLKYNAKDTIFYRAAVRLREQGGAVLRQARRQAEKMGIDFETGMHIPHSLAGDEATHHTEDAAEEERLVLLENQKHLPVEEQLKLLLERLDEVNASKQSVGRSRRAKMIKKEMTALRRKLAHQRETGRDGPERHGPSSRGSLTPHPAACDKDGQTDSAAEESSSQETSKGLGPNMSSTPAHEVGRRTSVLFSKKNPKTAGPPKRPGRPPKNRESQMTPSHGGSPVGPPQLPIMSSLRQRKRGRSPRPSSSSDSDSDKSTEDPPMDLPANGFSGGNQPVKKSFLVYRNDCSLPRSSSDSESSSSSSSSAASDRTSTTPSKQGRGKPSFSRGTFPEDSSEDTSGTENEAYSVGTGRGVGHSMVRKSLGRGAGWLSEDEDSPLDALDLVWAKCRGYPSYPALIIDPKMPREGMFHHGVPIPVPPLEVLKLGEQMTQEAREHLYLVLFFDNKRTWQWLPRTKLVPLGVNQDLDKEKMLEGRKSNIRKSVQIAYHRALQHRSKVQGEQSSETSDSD

[2] = target: Fibroblast growth factor receptor 2 (Homo sapiens) (UniProt P21802); conditions: Compound concentration 20.0 uM
Fibroblast growth factor receptor 2 (Homo sapiens), sequence (P21802 22-821 limits assumed): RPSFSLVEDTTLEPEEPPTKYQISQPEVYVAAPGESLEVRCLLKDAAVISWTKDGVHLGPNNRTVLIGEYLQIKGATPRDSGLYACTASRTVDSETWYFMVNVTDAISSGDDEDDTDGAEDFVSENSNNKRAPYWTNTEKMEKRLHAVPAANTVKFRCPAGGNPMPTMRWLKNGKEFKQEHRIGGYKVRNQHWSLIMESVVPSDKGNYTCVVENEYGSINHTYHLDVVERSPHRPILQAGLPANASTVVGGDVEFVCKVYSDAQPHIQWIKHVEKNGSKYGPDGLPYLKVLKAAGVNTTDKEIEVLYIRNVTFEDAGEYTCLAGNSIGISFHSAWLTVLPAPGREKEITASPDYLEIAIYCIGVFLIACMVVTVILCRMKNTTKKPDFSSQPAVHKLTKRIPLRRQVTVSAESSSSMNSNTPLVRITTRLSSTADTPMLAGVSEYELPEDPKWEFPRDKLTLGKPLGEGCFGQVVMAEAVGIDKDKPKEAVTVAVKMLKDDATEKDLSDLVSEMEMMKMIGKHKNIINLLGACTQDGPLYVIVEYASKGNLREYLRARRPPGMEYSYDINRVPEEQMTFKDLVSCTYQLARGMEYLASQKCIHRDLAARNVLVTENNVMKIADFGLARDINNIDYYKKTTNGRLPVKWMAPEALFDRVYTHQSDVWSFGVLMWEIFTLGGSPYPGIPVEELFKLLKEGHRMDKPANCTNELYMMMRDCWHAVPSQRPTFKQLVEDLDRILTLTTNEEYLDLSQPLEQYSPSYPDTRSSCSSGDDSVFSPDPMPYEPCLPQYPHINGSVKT
Description: Thermal Shift Assay. Domain: start/stop: T457-E768

SMILES	ΔTm [1] [°C]	ΔTm [2] [°C]
Cc1cccc(N/N=C(\C(=O)c2cccs2)C(=O)C(F)(F)F)c1	1.4	-0.22
NCCCOc1cc2ccccc2cc1C(=O)NCCOc1cc2ccccc2cc1C(=O)Nc1ccc(Cl)cc1O	0	-1.59
O=C(NO)c1ccc(CN2CCCc3cc(Cl)ccc32)cc1	-1.37	0.45
Cc1c(CN2CCC(Nc3ncnc4sc(CC(F)(F)F)cc34)CC2)ccc2[nH]c(C#N)cc12	-2.53	0.11
N[C@](CCCCB(O)O)(CCN1CCCCC1)C(=O)O	2.66	0.8
O=C(c1cc(Cc2n[nH]c(=O)c3ccccc23)ccc1F)N1CCN(C(=O)C2CC2)CC1	0.96	-0.16
N#Cc1cc2cc(CN3CCC(Nc4ncnc5sc(CC(F)(F)F)cc45)CC3)ccc2[nH]1	1.21	0.16
CCc1c(-c2ccccc2)c(-c2ccccc2)nn1-c1ccccc1-c1cccc(OCC(=O)O)c1	-3.01	-1.61
Fc1ccc(CNc2ncnc3ccc(F)cc23)cc1	1.26	-0.12
CN(CCC(Oc1ccc(-c2ccccc2)cc1)c1ccc(F)cc1)CC(=O)O (stereo not drawn)	1.93	0.44
CC#C[C@]1(O)CC[C@H]2[C@@H]3CCC4=CC(=O)CCC4=C3[C@@H](c3ccc(N(C)C)cc3)C[C@@]21C	-2.63	0.14
Cc1ccc2c(c1)nc(/C=C/c1cccc3cccnc13)n2-c1cccc(OCCCN2CCN(C)CC2)c1	0.16	0.24
O=C(NO)C(c1ccc(-c2ncc(C(F)(F)F)cn2)cc1)c1ccccc1F (stereo not drawn)	-0.82	-0.81
Oc1nc(-c2ccc(C(F)(F)F)cc2)nc2c1CSCC2	0.57	-0.47
NC(=O)C(CCCN=C(N)CCl)NC(=O)c1ccccc1 (stereo not drawn)	1.58	-0.58
Cc1cc(C)nc(SCC(=O)Nc2ncc(Cc3cccc(OCc4cn(Cc5ccccc5)nn4)c3)s2)n1	-1.46	-10.7
O=C(Nc1c(Cl)cncc1Cl)c1ccc(OC(F)F)c(OCC2CC2)c1	0.52	0.95
O=C(NC[C@H](O)CN1CCc2ccccc2C1)c1cc(NC2COC2)ncn1	-1.25	0.37
CSc1cccc(Nc2ncc3cc(-c4c(Cl)cccc4Cl)c(=O)n(C)c3n2)c1	-0.8	-0.92
CC(C)[C@@H]1NC(=O)[C@H](Cc2ccc(O)cc2)NC(=O)[C@@H](CC(=O)O)NC(=O)S[C@@H](C(=O)O)NC(=O)[C@H]([C@H](C)O)NC(=O)[C@H](Cc2ccc(O)cc2)NC(=O)[C@H](Cc2c[nH]c3ccccc23)NC(=O)[C@H](CCCNC(=N)N)NC(=O)[C@H](Cc2c[nH]c3ccccc23)NC(=O)[C@H](C)NC(=O)[C@H](CO)NC(=O)[C@H](CCCNC(=N)N)NC(=O)[C@H]([C@H](C)O)NC(=O)[C@H](CC(N)=O)NC(=O)[C@H](Cc2ccc(O)cc2)NC1=O	1.38	0.32

SMILES	ΔTm [1] [°C]	ΔTm [2] [°C]
COc1ccc(C(=O)N[C@H](C(=O)N2CCC[C@H]2C(=O)N[C@H](C(=O)C(F)(F)F)C(C)C)C(C)C)cc1	0.8	0.07
NC(=O)c1cc(F)cc2c1C(=O)N(C1CCN(C3CCC(F)(F)CC3)CC1)C2	-0.15	-0.03
Cc1ncsc1-c1ccc([C@H](C)NC(=O)[C@@H]2C[C@@H](O)CN2C(=O)[C@@H](NC(=O)COCCCOCCNC(=O)C[C@@H]2N=C(c3ccc(Cl)cc3)c3c(sc(C)c3C)-n3c(C)nnc32)C(C)(C)C)cc1	-1.73	-0.49
O=C(O)c1cccc(-c2ccc(-c3cn(C(=O)N4CCCCC4Cc4ccccc4)nn3)cc2)c1 (stereo not drawn)	-2.81	-0.39
Cc1cc(OCCCNCCC(N)=O)ccc1Cc1c(O[C@@H]2O[C@H](CO)[C@@H](O)[C@H](O)[C@H]2O)n[nH]c1C(C)C	1.37	0.45
C[C@H]1CO[C@@H]2Cn3cc(C(=O)NCc4ccc(F)cc4F)c(=O)c(O)c3C(=O)N12	2.22	0.45
CNCc1ccc(-c2[nH]c3cc(F)cc4c3c2CCNC4=O)cc1	3.14	-0.11
CC(C)(CNC(=O)c1cccc(-c2noc(C(F)(F)F)n2)c1)c1coc(-c2ccccc2)n1	-1.34	0.16
CS(=O)(=O)c1ccc(Oc2cc(F)cc(C#N)c2)c2c1[C@H](O)C(F)(F)C2	1.71	-0.21
CC(=O)N1CCC(c2ccc(C(=O)NC(=N)N)cc2C(F)(F)F)CC1	1.3	0.33
C[C@@H](COCCC(=O)N1CCN(c2ncc(C(F)(F)F)cn2)CC1)Nc1cn[nH]c(=O)c1C(F)(F)F	0.01	0.24
CC(=O)N[C@@H](CC(C)C)C(=O)N[C@@H](CCC(=O)O)C(=O)N[C@@H](Cc1cnc[nH]1)C(=O)N[C@@H](CC(=O)O)C(=O)CCl (Ac-LEHD-CH2Cl)	-1.13	0.65
CCN(CCN(C)C)C(=O)CNCc1cc(C(N)=O)ccn1	-1.31	0.97
CC(=Cc1cc(C)ccc1C=C(C)C(=O)NC(=N)N)C(=O)N=C(N)N	-1.11	-0.04
CCOC(=O)Oc1c(OC)cc(C(=O)O[C@H]2C[C@H]3CN4CCc5c([nH]c6cc(OC)ccc56)[C@@H]4C[C@H]3[C@@H](C(=O)OC)[C@@H]2OC)cc1OC	2.92	-1.05
CC(C)(C)NS(=O)(=O)c1cccc2c(NC(=O)[C@H](Cc3ccccc3)NC(=O)C3CCCCC3)cccc12	0.28	0.01
NC(=O)C1CCCc2c1[nH]c1ccc(Cl)cc21 (stereo not drawn)	2.61	0.23
CNCCN(C)Cc1cn[nH]c1-c1ccc(OC2CC(OCCC3CCOCC3)C2)cc1 (stereo not drawn)	-0.84	0.29
O=C(NCC(=O)N1CCCCC1)Nc1ccc2nnsc2c1	-1.05	0.59
COC(=O)CC[C@H](NC(=O)[C@H](C)NC(=O)OCc1ccccc1)C(=O)N[C@H](C(=O)N[C@@H](CC(=O)OC)C(=O)CF)C(C)C (Cbz-AE(OMe)VD(OMe)-CH2F)	-0.82	0.54

SMILES	ΔTm [1] [°C]	ΔTm [2] [°C]
CC(=O)N[C@@H](C)C(=O)N[C@@H](CCC(=O)O)C(=O)N[C@H](C(=O)N[C@@H](C=O)CC(=O)O)C(C)C	-1.79	0.19
CC1(NC(=O)COc2cccc(-c3nc4c(c(Nc5ccc(-c6cn[nH]c6)cc5)n3)CN(C3CCC3)CC4)c2)CC1	1.53	-0.36
Cc1ccsc1C(=CCCN1CCC[C@@H](C(=O)O)C1)c1sccc1C	0.44	0.37
CCc1ccccc1NC(=O)CSC(=O)NNC(=O)[C@H](Cc1c[nH]c2ccccc12)NC(=O)OC(C)(C)C	-6.08	-9.39
CCCn1/c(=N/C(=O)c2cccc(C(N)=O)c2)[nH]c2ccccc21	-1.26	0.22
Cn1c(OC[C@H]2CC[C@H](C(F)(F)F)CC2)nn2c(C3CCOCC3)ncc2c1=O	2.25	-0.94
O=C(c1cc(O)c(O)c([N+](=O)[O-])c1)c1ccccc1F	1.4	-0.06
C=CC(=O)Nc1cccc(-c2c[nH]cc2CN(C)CCN)c1	-1.04	0.24
CCS(=O)(=O)N1CC(CC#N)(n2cc(-c3ncnc4[nH]ccc34)cn2)C1	-1.09	1.48
O=C(N1CCCC[C@H]1Cc1ccccc1)n1cc(-c2ccc(-c3ccccc3)cc2)nn1	1	0.8
COc1ccc(OC)c(-c2nnc3n2N=C(c2ccc(OC)c(OC)c2)CS3)c1	0.8	0.4
CC(C)Oc1ccc2c(=O)[nH]c3sccc3c2c1	-0.93	0.02
C[C@@H]1OC(=O)NN=C1c1ccc(-c2ccc(F)cc2)c(C(F)(F)F)c1	0.4	-0.74
CS(=O)(=O)Nc1ccc2oc3c(OC(F)F)ccc(C(=O)Nc4c(Cl)cncc4Cl)c3c2c1	0.46	-0.38
Cc1nc(-c2cnn(C)c2-c2ccc(C(F)(F)F)cn2)c2c(N3CCC3)ncnn12	0.67	0.06
O=C(NNc1ccccn1)c1ccccn1	0.74	0.02
CC(=O)N[C@@H](CC(=O)O)C(=O)N[C@@H](CCC(=O)O)C(=O)N[C@H](C(=O)N[C@@H](CC(=O)O)C(=O)CCl)C(C)C	-1.75	0.6
Cc1cc(/N=N/c2ccc(S(=O)(=O)NC3CCCC3)cc2)c(N)cc1O	7.73	2.06
CC(=O)OCCN1C(=O)c2c(C)nc3ccc(S(=O)(=O)N4CCOCC4)cc3c2C1=O	-0.89	0.68
